Read-outs that look alike come from different tables or passages of the source.
Experiments:
Format in all cases: cell-based
HL-60 (MLL-WT) cells = test: Cell proliferation (alamarBlue) HL-60; settings: Homo sapiens, HL-60 (MLL-WT), read-out: IC50 proliferation
Procedure: (§1) Cells were seeded in the optimal growth medium at 4000–5000 cells/well in a 96 MTP and cultured 18–24 h before inhibitor treatment.

Jurkat (MLL-WT) cells = test: Cell proliferation (alamarBlue) Jurkat; settings: Homo sapiens, Jurkat (MLL-WT)
Procedure: as §1

OCI-AML-5 (MLL-WT) cells = test: Cell proliferation (alamarBlue) OCI-AML-5; settings: Homo sapiens, OCI-AML-5, OCI-AML-5 (MLL-WT), read-out: IC50 proliferation
Procedure: as §1

OCI-AML-3 (MLL-WT) cells = test: Cell proliferation (alamarBlue) OCI-AML-3; settings: Homo sapiens, OCI-AML-3, OCI-AML-3 (MLL-WT), read-out: IC50 proliferation
Procedure: as §1

MV4-11 (MLL-AF4) cells = test: Cell proliferation (alamarBlue) MV4-11; settings: Homo sapiens, MV4-11, MV4-11 (MLL-AF4), read-out: IC50 proliferation
Procedure: as §1

RS4;11 (MLL-AF4) cells = test: Cell proliferation (alamarBlue) RS4;11; settings: Homo sapiens, RS4-11, RS4;11 (MLL-AF4), read-out: IC50 proliferation
Procedure: as §1

SEM (MLL-AF4) cells = test: Cell proliferation (alamarBlue) SEM; settings: SEM (MLL-AF4), read-out: IC50 proliferation
Procedure: as §1

ML-2 (MLL-AF6) cells = test: Cell proliferation (alamarBlue) ML-2; settings: ML-2 (MLL-AF6), read-out: IC50 proliferation
Procedure: as §1

MOLM-13 (MLL-AF9) cells = test: Cell proliferation (alamarBlue) MOLM-13; settings: Homo sapiens, MOLM-13, MOLM-13 (MLL-AF9), read-out: IC50 proliferation
Procedure: as §1

MOLM-14 (MLL-AF9) cells = test: Cell proliferation (alamarBlue) MOLM-14; settings: Homo sapiens, MOLM-14, MOLM-14 (MLL-AF9), read-out: IC50 proliferation
Procedure: as §1

NOMO-1 (MLL-AF9) cells = test: Cell proliferation (alamarBlue) NOMO-1; settings: Homo sapiens, NOMO-1, NOMO-1 (MLL-AF9), read-out: IC50 proliferation
Procedure: as §1

[1] = system: OCI-AML-2 (MLL-AF9) cells; test: Cell proliferation (alamarBlue) OCI-AML-2; settings: Homo sapiens, OCI-AML2, OCI-AML-2 (MLL-AF9), read-out: IC50 proliferation
Procedure: as §1

KOPN-8 (MLL-ENL) cells = test: Cell proliferation (alamarBlue) KOPN-8; settings: Homo sapiens, KOPN-8, KOPN-8 (MLL-ENL), read-out: IC50 proliferation
Procedure: as §1

EOL-1 (MLL-TD) cells = test: Cell proliferation (alamarBlue) EOL-1; settings: Homo sapiens, EOL1, EOL-1 (MLL-TD), read-out: IC50 proliferation
Procedure: as §1

[2] = system: MV4-11, MOLM-13 and HL-60 cells; test: Cell proliferation, all three tested AML cell lines; settings: 96 h; all tested cell lines (MV4-11, MOLM-13, HL-60), 4 days of treatment (Fig. 1a); read-out: anti-proliferation IC50s
Procedure: Cells were seeded in the optimal growth medium at 4000–5000 cells/well in a 96 MTP and cultured 18–24 h before inhibitor treatment. Upon treatment with the indicated inhibitor, cells were cultured for 24 h, 96 h, and 168 h and effects on proliferation were determined using alamarBlue Cell Viability Reagent (Thermo Fisher Scientific, Waltham, MA, USA).

HL-60 cells = test: CD11b protein expression by flow cytometry, HL-60; settings: non-fused HL-60 cell line, 4 and 7 days of treatment
Procedure: Four thousand cells per well were seeded 24 h before they were treated with the indicated inhibitor in a 96 MTP. After 4 or 7 days of treatment, cells were washed with PBS and stained with CD11b - APC (BioLegend, San Diego, California, USA) and DAPI (Thermo Fisher Scientific, Waltham, Massachusetts, USA) or AnnexinV – FITC (BioLegend, San Diego, California, USA) and PI solution (Sigma-Aldrich St. Louis, Missouri, USA) using the FACS Canto II (BD Biosciences, Heidelberg, Germany) and data was analyzed with FACSDiva software.

[3] = system: MV4-11, MOLM-13 and HL-60 cells; test: Cell cycle analysis (PI, flow cytometry); settings: 4 days of treatment (Figure S2)
Procedure: Cells were washed with PBS and fixed overnight at − 20 °C with 70% ethanol. Fixed cells were stained with PI solution (Sigma-Aldrich St. Louis, MO, USA) solution containing RNase A (Qiagen, Hilden, Germany). Fluorescence was measured with FACS Canto II (BD Biosciences, Heidelberg, Germany) flow cytometer and data was analyzed with FACSDiva software.

Work on `COc1cc(F)ccc1-c1cc(Nc2cc(CS(C)(=N)=O)ccn2)ncc1F` (stereo not drawn) [BAY 1251152] yielded an IC50 (HL-60 (MLL-WT) cells; 24 h, 1 day of treatment (D1)) of 140 nM, an IC50 (HL-60 (MLL-WT) cells; 96 h, 4 days of treatment (D4)) of 110 nM and an IC50 (HL-60 (MLL-WT) cells; 168 h, 7 days of treatment (D7)) of 240 nM. The IC50 (Jurkat (MLL-WT) cells; D1, read-out: IC50 proliferation) was 140 nM, the IC50 (Jurkat (MLL-WT) cells; D4, read-out: IC50 proliferation) was 30 nM and the IC50 (Jurkat (MLL-WT) cells; D7, read-out: IC50 proliferation) was 30 nM. The IC50 (OCI-AML-5 (MLL-WT) cells; D1) was 160 nM, the IC50 (OCI-AML-5 (MLL-WT) cells; D4) was 50 nM and the IC50 (OCI-AML-5 (MLL-WT) cells; D7) was 30 nM. It also gave an IC50 (OCI-AML-3 (MLL-WT) cells; D1) of 90 nM, an IC50 (OCI-AML-3 (MLL-WT) cells; D4) of 110 nM and an IC50 (OCI-AML-3 (MLL-WT) cells; D7) of 180 nM. The IC50 (MV4-11 (MLL-AF4) cells; D1) was 230 nM, the IC50 (MV4-11 (MLL-AF4) cells; D4) was 70 nM and the IC50 (MV4-11 (MLL-AF4) cells; D7) was 220 nM. It also gave an IC50 (RS4;11 (MLL-AF4) cells; D1) of 110 nM, an IC50 (RS4;11 (MLL-AF4) cells; D4) of 90 nM and an IC50 (RS4;11 (MLL-AF4) cells; D7) of 90 nM. For the same compound, the IC50 (SEM (MLL-AF4) cells; D1) was 260 nM, the IC50 (SEM (MLL-AF4) cells; D4) was 90 nM and the IC50 (SEM (MLL-AF4) cells; D7) was 200 nM. The IC50 (ML-2 (MLL-AF6) cells; D1) was 110 nM, the IC50 (ML-2 (MLL-AF6) cells; D4) was 200 nM and the IC50 (ML-2 (MLL-AF6) cells; D7) was 230 nM. For the same compound, the IC50 (MOLM-13 (MLL-AF9) cells; D1) was 70 nM, the IC50 (MOLM-13 (MLL-AF9) cells; D4) was 60 nM and the IC50 (MOLM-13 (MLL-AF9) cells; D7) was 70 nM. It also gave an IC50 (MOLM-14 (MLL-AF9) cells; D1) of 40 nM, an IC50 (MOLM-14 (MLL-AF9) cells; D4) of 40 nM and an IC50 (MOLM-14 (MLL-AF9) cells; D7) of 70 nM. It also gave an IC50 (NOMO-1 (MLL-AF9) cells; D1) of 240 nM, an IC50 (NOMO-1 (MLL-AF9) cells; D4) of 60 nM and an IC50 (NOMO-1 (MLL-AF9) cells; D7) of 100 nM. For the same compound, the IC50 ([1]; D1) was 70 nM, the IC50 ([1]; D4) was 110 nM and the IC50 ([1]; D7) was 70 nM. It also gave an IC50 (KOPN-8 (MLL-ENL) cells; D1) of 160 nM, an IC50 (KOPN-8 (MLL-ENL) cells; D4) of 120 nM and an IC50 (KOPN-8 (MLL-ENL) cells; D7) of 210 nM. It also gave an IC50 (EOL-1 (MLL-TD) cells; D1) of 70 nM, an IC50 (EOL-1 (MLL-TD) cells; D4) of 30 nM and an IC50 (EOL-1 (MLL-TD) cells; D7) of 60 nM. For the same compound, the IC50 [2] was 30 to 140 nM, the “CD11b level” value (HL-60 cells) was “treatment did” and the “cell cycle effect” value [3] was “decrease of cells in S and G2/M phase with increasing concentrations”.

Reference: publication PMC6599250, “Functional diversity of inhibitors tackling the differentiation blockage of MLL-rearranged leukemia” (Journal of Hematology & Oncology, 2019)
